According to patent US12606552B2, “Bifunctional compound, preparation method therefor, and use thereof” (SUZHOU KINTOR PHARMACEUTICALS, INC., priority 2020, dated 2026):

Biological target: T1, AR (Homo sapiens, UniProt P10275, T878A)
T1 sequence (P10275 1-920 T878A): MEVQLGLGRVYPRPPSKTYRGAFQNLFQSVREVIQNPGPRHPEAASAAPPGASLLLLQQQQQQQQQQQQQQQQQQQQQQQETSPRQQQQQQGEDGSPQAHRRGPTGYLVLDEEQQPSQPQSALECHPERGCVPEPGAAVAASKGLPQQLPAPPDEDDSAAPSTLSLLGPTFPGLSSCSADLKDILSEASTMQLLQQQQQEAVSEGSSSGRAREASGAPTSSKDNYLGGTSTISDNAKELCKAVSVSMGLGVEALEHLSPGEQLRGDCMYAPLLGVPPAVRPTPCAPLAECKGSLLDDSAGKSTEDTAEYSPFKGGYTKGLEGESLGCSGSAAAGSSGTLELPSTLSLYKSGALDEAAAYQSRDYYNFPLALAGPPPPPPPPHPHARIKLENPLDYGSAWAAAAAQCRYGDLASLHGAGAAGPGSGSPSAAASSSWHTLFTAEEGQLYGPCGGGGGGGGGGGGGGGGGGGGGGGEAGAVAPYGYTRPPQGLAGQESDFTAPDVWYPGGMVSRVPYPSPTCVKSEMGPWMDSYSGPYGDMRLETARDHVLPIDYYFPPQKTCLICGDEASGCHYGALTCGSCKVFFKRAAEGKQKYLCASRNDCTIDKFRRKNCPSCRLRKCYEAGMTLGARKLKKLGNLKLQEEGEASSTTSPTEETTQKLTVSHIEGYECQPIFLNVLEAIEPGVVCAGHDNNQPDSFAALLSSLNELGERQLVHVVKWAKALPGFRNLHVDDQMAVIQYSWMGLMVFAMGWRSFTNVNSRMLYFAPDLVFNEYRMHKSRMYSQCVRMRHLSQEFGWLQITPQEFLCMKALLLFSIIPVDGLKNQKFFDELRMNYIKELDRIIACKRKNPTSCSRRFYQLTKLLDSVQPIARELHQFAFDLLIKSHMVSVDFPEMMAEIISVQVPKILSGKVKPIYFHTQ
Assay: Effects of compounds on AR expression in LNCaP cells (ELISA, DC50)
Type: cell-based
Design: Measurement of the Effects of Drugs on the Expression of AR in Cells by ELISA Method; endogenous in cells; host or cells: LNCaP
Conditions: 24 hours of drug treatment, AR by ELISA
Procedure, shortened: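 LNCaP cells at about 15,000/well were treated for 24 h with compound at 0.0001–2 μmol/L final. AR in cell lysates was measured by ELISA (OD450). Inhibition was relative to DMSO control after blank subtraction, and DC50 was calculated from it.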

SMILES | DC50 [nM]
CC(C)(C)[C@H](NC(=O)COCCCCOc1ccc(-c2ccc(N3C(=S)N(c4ccc(C#N)c(C(F)(F)F)c4F)C(=O)C3(C)C)cn2)cc1)C(=O)N1C[C@H](O)C[C@H]1c1nc(-c2cccs2)c[nH]1 [Compound A209] | 856
CC(C)(C)[C@H](NC(=O)COCCCCOc1ccc(-c2ncc(N3C(=S)N(c4ccc(C#N)c(C(F)(F)F)c4F)C(=O)C3(C)C)cc2F)c(C(F)(F)F)c1)C(=O)N1C[C@H](O)C[C@H]1c1nc(-c2cccs2)c[nH]1 [Compound A210] | 834
CC(C)(C)[C@H](NC(=O)COCCCCOc1ccc(-c2ccc(N3C(=S)N(c4ccc(C#N)c(C(F)(F)F)c4F)C(=O)C3(C)C)cn2)cc1)C(=O)N1C[C@H](O)C[C@H]1c1nc(-c2cccnc2)c[nH]1 [Compound A214] | 173
COc1c(C#N)ccc(N2C(=O)C(C)(C)N(c3cnc(-c4ccc(OCCCCOCC(=O)N[C@H](C(=O)N5C[C@H](O)C[C@H]5C(=O)NCc5ccc(-c6scnc6C)cc5)C(C)(C)C)c(F)c4)c(F)c3)C2=S)c1F [Compound A215] | 83.1
CC(C)(C)[C@H](NC(=O)COCCCCOc1ccc(-c2ncc(N3C(=S)N(c4ccc(C#N)c(C(F)(F)F)c4F)C(=O)C3(C)C)cc2F)c(C(F)(F)F)c1)C(=O)N1C[C@H](O)C[C@H]1C(=O)NCc1cnco1 [Compound A219] | 589
Cc1ncsc1-c1cn(C)c([C@@H]2C[C@@H](O)CN2C(=O)[C@@H](NC(=O)COCCCCOc2ccc(-c3ccc(N4C(=S)N(c5ccc(C#N)c(C(F)(F)F)c5F)C(=O)C4(C)C)cn3)cc2)C(C)(C)C)n1 [Compound A220] | 289
Cc1ncsc1-c1cn(C)c([C@@H]2C[C@@H](O)CN2C(=O)[C@@H](NC(=O)COCCCCOc2ccc(-c3ncc(N4C(=S)N(c5ccc(C#N)c(C(F)(F)F)c5F)C(=O)C4(C)C)cc3F)c(C(F)(F)F)c2)C(C)(C)C)n1 [Compound A221] | 144
Cc1ncoc1-c1c[nH]c([C@@H]2C[C@@H](O)CN2C(=O)[C@@H](NC(=O)COCCCCOc2ccc(-c3ncc(N4C(=S)N(c5ccc(C#N)c(C(F)(F)F)c5F)C(=O)C4(C)C)cc3F)c(C(F)(F)F)c2)C(C)(C)C)n1 [Compound A224] | 75.7
Cc1ncoc1-c1c[nH]c([C@@H]2C[C@@H](O)CN2C(=O)[C@@H](NC(=O)COCCCCOc2ccc(-c3ccc(N4C(=S)N(c5ccc(C#N)c(C(F)(F)F)c5F)C(=O)C4(C)C)cn3)cc2)C(C)(C)C)n1 [Compound A225] | 92.1
CC(C)(C)[C@H](NC(=O)COCCCCOc1ccc(-c2ncc(N3C(=S)N(c4ccc(C#N)c(C(F)(F)F)c4F)C(=O)C3(C)C)cc2F)c(C(F)(F)F)c1)C(=O)N1C[C@H](O)C[C@H]1c1nc(-c2cncnc2)c[nH]1 [Compound A227] | 24.8
CC(C)(C)[C@H](NC(=O)COCCCCOc1ccc(-c2ccc(N3C(=S)N(c4ccc(C#N)c(C(F)(F)F)c4F)C(=O)C3(C)C)cn2)cc1)C(=O)N1C[C@H](O)C[C@H]1c1nc(-c2cncnc2)c[nH]1 [Compound A228] | 107
Cn1cncc1-c1c[nH]c([C@@H]2C[C@@H](O)CN2C(=O)[C@@H](NC(=O)COCCCCOc2ccc(-c3ccc(N4C(=S)N(c5ccc(C#N)c(C(F)(F)F)c5F)C(=O)C4(C)C)cn3)cc2)C(C)(C)C)n1 [Compound A232] | 41.3
Cn1cncc1-c1c[nH]c([C@@H]2C[C@@H](O)CN2C(=O)[C@@H](NC(=O)COCCCCOc2ccc(-c3ncc(N4C(=S)N(c5ccc(C#N)c(C(F)(F)F)c5F)C(=O)C4(C)C)cc3F)c(C(F)(F)F)c2)C(C)(C)C)n1 [Compound A233] | 194
CNC(=O)c1ccc(-c2c[nH]c([C@@H]3C[C@@H](O)CN3C(=O)[C@@H](NC(=O)COCCCCOc3ccc(-c4ccc(N5C(=S)N(c6ccc(C#N)c(C(F)(F)F)c6F)C(=O)C5(C)C)cn4)cc3)C(C)(C)C)n2)cc1 [Compound A234] | 26.1
CNC(=O)c1ccc(-c2c[nH]c([C@@H]3C[C@@H](O)CN3C(=O)[C@@H](NC(=O)COCCCCOc3ccc(-c4ncc(N5C(=S)N(c6ccc(C#N)c(C(F)(F)F)c6F)C(=O)C5(C)C)cc4F)c(C(F)(F)F)c3)C(C)(C)C)n2)cc1 [Compound A235] | 125
Cc1ncsc1-c1ccc(CNC(=O)[C@@H]2C[C@@H](O)CN2C(=O)[C@@H](NC(=O)Cc2ccc(C(=O)Nc3ccc(-c4ccc(N5C(=S)N(c6ccc(C#N)c(C(F)(F)F)c6F)C(=O)C5(C)C)cn4)cc3)cc2)C(C)(C)C)cc1 [Compound A240] | 264
Cc1ncsc1-c1ccc(CNC(=O)[C@@H]2C[C@@H](O)CN2C(=O)[C@@H](NC(=O)c2ccc(C(F)(F)C(=O)Nc3ccc(-c4ccc(N5C(=S)N(c6ccc(C#N)c(C(F)(F)F)c6F)C(=O)C5(C)C)cn4)cc3)cc2)C(C)(C)C)cc1 [Compound A241] | 807
Cc1ncsc1-c1ccc(CNC(=O)[C@@H]2C[C@@H](O)CN2C(=O)[C@@H](NC(=O)c2ccc(CC(=O)Nc3ccc(-c4ccc(N5C(=S)N(c6ccc(C#N)c(C(F)(F)F)c6F)C(=O)C5(C)C)cn4)cc3)cc2)C(C)(C)C)cc1 [Compound A244] | 173
Cc1ncsc1-c1ccc(CNC(=O)[C@@H]2C[C@@H](O)CN2C(=O)[C@@H](NC(=O)COCCCOCCCCCOc2ccc(N3C(=S)N(c4ccc(C#N)c(C(F)(F)F)c4F)C(=O)C3(C)C)cn2)C(C)(C)C)cc1 [Compound A247] | 75.5
Cc1ncsc1-c1ccc(CNC(=O)[C@@H]2C[C@@H](O)CN2C(=O)[C@@H](NC(=O)COCCCOCCCCOc2ccc(N3C(=S)N(c4ccc(C#N)c(C(F)(F)F)c4F)C(=O)C3(C)C)cn2)C(C)(C)C)cc1 [Compound A248] | 48.8
Cc1ncsc1-c1ccc(CNC(=O)[C@@H]2C[C@@H](O)CN2C(=O)[C@@H](NC(=O)CCc2ccc(C(=O)Nc3ccc(-c4ccc(N5C(=S)N(c6ccc(C#N)c(C(F)(F)F)c6F)C(=O)C5(C)C)cn4)cc3)cc2)C(C)(C)C)cc1 [Compound A252] | 95.9
Cc1ncsc1-c1ccc(CNC(=O)[C@@H]2C[C@@H](O)CN2C(=O)[C@@H](NC(=O)COCCOCCCCOc2ccc(N3C(=S)N(c4ccc(C#N)c(C(F)(F)F)c4F)C(=O)C3(C)C)cn2)C(C)(C)C)cc1 [Compound A254] | 52.5
Cc1ncsc1-c1ccc(CNC(=O)[C@@H]2C[C@@H](O)CN2C(=O)[C@@H](NC(=O)Cc2ccc(C(=O)Nc3ccc(-c4ncc(N5C(=S)N(c6ccc(C#N)c(C(F)(F)F)c6F)C(=O)C5(C)C)cc4F)c(C(F)(F)F)c3)cc2)C(C)(C)C)cc1 [Compound A256] | 119
Cc1ncsc1-c1ccc(CNC(=O)[C@@H]2C[C@@H](O)CN2C(=O)[C@@H](NC(=O)COc2ncc(N3C(=S)N(c4ccc(C#N)c(C(F)(F)F)c4F)C(=O)C3(C)C)cc2F)C(C)(C)C)cc1 [Compound A264] | 870
Cc1ncsc1-c1ccc(CNC(=O)[C@@H]2C[C@@H](O)CN2C(=O)[C@@H](NC(=O)COCCOCCOc2ncc(N3C(=S)N(c4ccc(C#N)c(C(F)(F)F)c4F)C(=O)C3(C)C)cc2F)C(C)(C)C)cc1 [Compound A265] | 381
Cc1ncsc1-c1ccc(CNC(=O)[C@@H]2C[C@@H](O)CN2C(=O)[C@@H](NC(=O)COCCOCCCOc2ncc(N3C(=S)N(c4ccc(C#N)c(C(F)(F)F)c4F)C(=O)C3(C)C)cc2F)C(C)(C)C)cc1 [Compound A267] | 119
Cc1ncsc1-c1ccc(CNC(=O)[C@@H]2C[C@@H](O)CN2C(=O)[C@@H](NC(=O)COCCOc2ncc(N3C(=S)N(c4ccc(C#N)c(C(F)(F)F)c4F)C(=O)C3(C)C)cc2C(F)(F)F)C(C)(C)C)cc1 [Compound A269] | 766
